Laboratory results: patent US20050165218A1, “Crystal structure of the ligand binding domain of the retinoic acid-related orphan receptor alpha (ror-alpha)” (priority 2002, published 2005)
Structures can show the parent of a compound that is named as a salt.

Experiments:
RORα [1] = target: T1, RORα (Homo sapiens, UniProt P35398); experiment: RORE reporter transcription in cells partially depleted of cholesterol (HPCD plus lovastatin, LDL-free serum); conditions: for Transcription of the RORE reporter in response to compound (in words): HPCD and lovastatin treated cells, compared to vehicle; for fold induction at 10 µM: read-out: Fold induction (ROR alpha transcriptional activity)
T1 sequence (P35398 1-556 isoform P35398-1): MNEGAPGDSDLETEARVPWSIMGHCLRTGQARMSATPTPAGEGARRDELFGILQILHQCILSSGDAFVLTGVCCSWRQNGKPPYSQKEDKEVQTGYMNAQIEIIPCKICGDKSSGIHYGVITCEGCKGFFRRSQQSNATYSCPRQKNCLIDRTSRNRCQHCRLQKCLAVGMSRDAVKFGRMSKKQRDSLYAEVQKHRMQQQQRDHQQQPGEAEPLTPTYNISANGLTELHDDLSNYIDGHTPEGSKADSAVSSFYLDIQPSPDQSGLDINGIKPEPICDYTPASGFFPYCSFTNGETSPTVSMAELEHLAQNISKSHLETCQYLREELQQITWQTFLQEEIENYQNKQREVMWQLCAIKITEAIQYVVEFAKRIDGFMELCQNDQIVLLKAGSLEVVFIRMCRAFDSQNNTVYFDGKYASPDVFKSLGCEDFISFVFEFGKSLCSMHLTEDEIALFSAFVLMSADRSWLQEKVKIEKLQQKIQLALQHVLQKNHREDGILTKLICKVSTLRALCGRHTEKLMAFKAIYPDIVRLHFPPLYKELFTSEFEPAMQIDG
Source text: We next establish whether in eukaryotic cells partially depleted of cholesterol, RORα transcriptional activity can be reconstituted by addition of cholesterol. We therefore treat the cells with hydroxypropyl-β-cyclodextrin (HPCD), a cyclodextrin derivative known to function as a cholesterol shuttle. HPCD treatment is used in experiments aiming at the partial depletion of intracellular cholesterol. In order to prevent an increase of intracellular cholesterol through the activation of the mevalonate pathway, cells are also treated with lovastatin while they are fed with a medium containing LDL-free serum.

RORα-LBD = target: T2, RORα-LBD (Homo sapiens, UniProt P35398); experiment: Ligand exchange screening by mass spectrometry (ESI Q-Tof, non-covalent complexes); assay type: binding; conditions: for Displacement of cholesterol bound to the ROR-LBD (mass spectrometry): 10-fold molar excess of ligand, overnight at 4° C., protein 135 μM
T2 construct: (His)6RORα-LBD269-556 is produced in Sf9 cells; (His)6 (N); made in house; host or cells: Sf9 insect cells
T2 sequence (P35398 269-556 isoform P35398-1): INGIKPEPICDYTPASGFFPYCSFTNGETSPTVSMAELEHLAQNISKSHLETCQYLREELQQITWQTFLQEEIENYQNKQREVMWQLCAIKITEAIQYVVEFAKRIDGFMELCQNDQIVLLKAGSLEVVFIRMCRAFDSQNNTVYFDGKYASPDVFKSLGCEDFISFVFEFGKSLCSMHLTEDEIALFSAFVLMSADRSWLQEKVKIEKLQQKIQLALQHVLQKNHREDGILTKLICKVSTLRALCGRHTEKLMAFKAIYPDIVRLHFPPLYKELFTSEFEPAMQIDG
Method: (His)6RORα-LBD269-556 is produced in Sf9 cells and purified by Ni-NTA chromatography followed by size exclusion chromatography. The protein in Tris-HCl buffer at a concentration of 135 μM is incubated overnight at 4° C., with a 10-fold molar excess of 25-hydroxycholesterol (5-cholesten-3beta, 25-diol) or cholesterol sulfate (5-cholesten-3beta-ol-sulfate). Prior to mass spectrometry analysis, the protein is subjected to fast buffer exchange in 50 mM ammonium acetate pH 7.0 by size exclusion chromatography using disposable Centri∘Spin 20 columns (Princeton Separations, Adelphia, N.J.) according to manufacturer′s instructions. Mass spectrometry is carried out using a Q-Tof (Micromass, Manchester, UK) quadrupole time-of-flight hybrid tandem mass spectrometer equipped with a Micromass Z-type electrospray ionization source (ESI). The acquisition mass range is typically m/z 1500-4500 in 5 seconds. The mass spectrometer is tuned in order to allow detection of multiply-charged species of non-covalent complexes. The source block temperature and desolvation temperature are kept at 50° C. and 80° C., respectively. Sample cone voltage (Vc) is set to 23 volts for standard measurements. In-source induced fragmentation experiments are performed by increasing Vc up to 100 volts. The protein solution is infused at a flow rate of 10 μl/min. Data are recorded and processed using Masslynx software. Spectra are deconvoluted using MaxEnt analysis software (Micromass, Manchester, UK).
Generation of the construct (His)6RORα-LBD270-523, fermentation and purification are done as described above. […] The resulting solution is incubated overnight at 37° C. and further purified by size exclusion chromatography on a SPX75 column, before concentrating to 17.6 mg/ml for crystallization trials. MS determination of the native complex is done as described previously (Kallen et al., Structure, Vol.10, 1697-1707, 2002). A control experiment is done by incubating the same amount of RORα LBD protein with 5% DMSO under identical conditions. The protein concentration is approximately 15 μM in 50 mM AcONH4, pH 7.0. Both spectra are recorded under identical conditions with Vc=20 volts.

RORα [2] = target: T1, RORα; experiment: Screen of cholesterol derivatives for binding of RORα to the RORE in essentially cholesterol-free medium; conditions: baculovirus-expressed RORα
Source text: The substances identified by rational design can be further analyzed in drug screening assay. The drug screening assays of the present invention may use any of a number of assays for measuring the functionality of RORα, including for the ability of RORα following ligand binding to transcriptionally regulate a gene, by increasing phosphorylation of RORα, by allowing RORα to dimerize or to heterodimerize with another nuclear receptor, by improving its ability to interact with co-activators, by changing its conformation and by increasing its ability to bind DNA. In one binding assay, a nucleic acid containing a RORα binding site is placed on a coated or onto a solid support. A preferred binding site is a response element (RORE) composed of a 6 bp AT rich motif immediately preceding a half site AGGTCA and the possible variants of this response element that are given in Giguere et al. 1994, Genes & Development 8:538-553, Mc Broom et al. 1995 Mol.Cell. Biol. 15: 796-808, Moraitis & Giguere, 1999; Molecular Endocrinology. 13:431-439. Methods for placing the nucleic acid on the solid support are well known in the art and include linking biotin to the nucleic acid and linking avidin to the solid support. The RORα is allowed to equilibrate with the nucleic acid and drugs are tested to see if they disrupt or enhance the binding. […]

RORα [3] = target: T1, RORα; experiment: RORE-tk-luc luciferase reporter assay in U2OS cells in essentially sterol free medium, fluvastatin treatment; assay type: cell-based
Method: Mammalian cells receive cholesterol by uptake from lipoproteins (LDL-cholesterol) and are able to synthesize cholesterol through the mevalonate pathway. In a situation where cells are cultured under conditions essentially sterol free, a key transcription factor, SREBP will be proteolytically cleaved and this releases a transcription factor to the nucleus. This transcription factor is able to transcriptionally activate HMG-CoA reductase, which is a critical step in the cholesterol biosynthesis through the mevalonate pathway. Statins, which are know drugs for hypercholesterol state are specific inhibitors of the HMG-CoA reductase. When cells are cultivated in sterol free medium, their HMG-CoA reductase is strongly activated. In this experiment cells, cultivated in medium essentially sterol free, are treated with fluvastatin. […] U2OS cells are transfected with expression vector for RORα (ROR) together with a luciferase reporter gene bearing a consensus response element for RORα (RORE-tk-luc). Luciferase activity is assayed in cells from 6 well plates and related to the activity in cells transfected with or without treatment with fluvastatin. The results are normalized to the protein content.

[4] = compounds 10 μM, cells treated with HPCD and lovastatin, LDL-free serum, control = 1

Compound	Fold induction (ROR alpha transcriptional activity) (RORα [1]; 10 µM)	Transcription of the RORE reporter in response to compound (in words) (RORα [1])	fold induction at 10 µM (RORα [1])	further results
CCC(CC[C@@H](C)[C@H]1CC[C@H]2[C@@H]3CC=C4C[C@@H](OC(C)=O)CC[C@]4(C)[C@H]3CC[C@]12C)C(C)C (stereo partly drawn) [5-Cholesten-24beta, 5-Cholesten-24β-ethyl-3β-ol acetate]	1	does not trigger any increase	–	–
CC(C)CCC[C@@H](C)[C@H]1CC[C@H]2C3=CC=C4C[C@@H](O)CC[C@]4(C)[C@H]3CC[C@]12C [7-Dehydrochol, 7-Dehydrocholesterol]	–	–	–	Fold induction (ROR alpha transcriptional activity) (RORα [1]; [4]): 4.6
C[C@H](CCCC(C)(C)O)[C@H]1CC[C@H]2[C@@H]3CC=C4C[C@@H](O)CC[C@]4(C)[C@H]3CC[C@]12C [25-OH-Chol, 5-cholesten-3beta, 25-diol]	–	–	1.6	Displacement of cholesterol bound to the ROR-LBD (mass spectrometry) (RORα-LBD): able to fully displace cholesterol
CC(C)CCC[C@@H](C)[C@H]1CC[C@H]2[C@@H]3CC=C4C[C@@H](OS(=O)(=O)O)CC[C@]4(C)[C@H]3CC[C@]12C [Chol. Sulfate, 5-cholesten-3beta-ol-sulfate]	–	–	5.4	Exchange of cholesterol by cholesterol-sulfate, MS-analysis (RORα-LBD; 1.0 mM ligand, 73 μM (His)6RORαLBD270-523, overnight at 37° C.): confirmed by MS-analysis; Displacement of cholesterol bound to the ROR-LBD (mass spectrometry) (RORα-LBD; listed as cholesterol sulfate): able to fully displace cholesterol; Displacement of cholesterol bound to the ROR-LBD (mass spectrometry) (RORα-LBD; listed as cholesterol-sulfate): could be exchanged with cholesterol-sulfate; Stability of ligand/ROR-LBD complex versus in-source collisions at various cone-voltages (RORα-LBD; compared with apo-ROR-LBD, Vc up to 100 volts): more stable; Displacement of cholesterol (RORα binding to RORE screen) (RORα [2]): able to displace cholesterol
CC(C)CCC[C@@H](C)[C@H]1CC[C@H]2[C@@H]3CC[C@H]4C[C@@H](O)CC[C@]4(C)[C@H]3CC[C@]12C [Cholestanol]	–	stimulated	–	Fold induction (ROR alpha transcriptional activity) (RORα [1]; [4]): 2.4
CC(C)n1c(/C=C/C(O)CC(O)CC(=O)O)c(-c2ccc(F)cc2)c2ccccc21 (stereo not shown) [Fluvastatin]	–	–	–	fold induction at 5 µM (RORα [3]; fluvastatin +5 μM, paired control 76, read-out: Fold induction (RORα transcriptional activity, luciferase)): 48; fold induction at 10 µM (RORα [3]; fluvastatin +10 μM, paired control 93, read-out: Fold induction (RORα transcriptional activity, luciferase)): 38

Second part, led by results:

Fold induction (ROR alpha transcriptional activity) (RORα [1]; 10 µM)	Transcription of the RORE reporter in response to compound (in words) (RORα [1])	Compound	fold induction at 10 µM (RORα [1])	further results
1.2	–	CC(C)CCC[C@](C)(O)[C@H]1CC[C@H]2[C@@H]3CC=C4C[C@@H](O)CC[C@]4(C)[C@H]3CC[C@@]21C [20(S)-OH-Chol]	–	–
1.2	–	CC(C)CC[C@@H](O)[C@@H](C)[C@H]1CC[C@H]2[C@@H]3CC=C4C[C@@H](O)CC[C@]4(C)[C@H]3CC[C@]12C [22(R)-OH-Chol]	–	–
1.5	–	C[C@@H](CO)CCC[C@@H](C)[C@H]1CC[C@H]2[C@@H]3CC=C4C[C@@H](O)CC[C@]4(C)[C@H]3CC[C@]12C [27-OH-Chol]	–	–
–	stimulated	CC(C)CCC[C@@H](C)[C@H]1CC[C@H]2[C@@H]3CC=C4C[C@@H](O)CC[C@]4(C)[C@H]3CC[C@]12C [Cholesterol, cholest-5-en-3beta-ol]	3.3	–
–	stimulated	CC(C)CCC[C@@H](C)[C@H]1CC[C@H]2[C@@H]3CC=C4C[C@H](O)CC[C@]4(C)[C@H]3CC[C@]12C [Epicholesterol, 5-Cholesten-3α-ol]	2.8	–
